From patent US11041207B2 (priority 2015, dated 2021)
Where “and” joins values, the source holds several entries; their conditions need not be identical. Equal entries are not always repeated. Entries after “also recorded” stand apart in the source; their conditions may differ.

What was measured:
[1] = in vivo; cited from earlier work
[2] = human, in vivo
[3] = test system: schizophrenia patients; conditions: human, in vivo
[4] = human, in vivo; remark: listed apart in the source
[5] = human, in vivo; remark: listed apart in the source
[6] = design: species or system human; conditions: in vivo
[7] = test system: bipolar disorder patients; conditions: in vivo; cited from earlier work

SMILES | effect on circulating proline [1] | fasting plasma proline, mean±SD [2] | β (95% CI), bivariate association of VPA treatment with total SANS score [3] | β, SANS total score of Val/Val versus Val/Met and Met/Met patients [3] | fasting plasma proline versus patients who did not receive VPA [4] | L-serine level [5] | fasting glycine level [5] | patients showing improvement in negative symptoms after treatment onset [6] | blood level considered the lower end of the therapeutic range [7]
CCO [Ethanol] | increases circulating proline levels | – | – | – | – | – | – | – | –
CCCC(CCC)C(=O)O [VPA, 2-propylpentanoic acid] | upregulates circulating proline; also recorded: strong up-regulator of proline levels | 299.29±94.76 | −0.578 (−7.157, 6.001) | −12.17 | significantly higher | 117 µM | 361 µM | 2 out of 9 and 5 out of 7 and two and five | 50 µg/mL
